The source of these data is paper PMC8333425, “Discovery of a dual Ras and ARF6 inhibitor from a GPCR endocytosis screen” (Nature Communications, 2021).

One data set has as its system AT1R. Put plainly: Endosomal BRET assay of AngII-mediated AT1R internalization (AT1R-RlucII / Endo-rGFP; HTS, validation, concentration-response). The class given is cell-based, human. The source says: We performed a HT campaign in HEK293 cells using the bystander endosomal BRET sensor, which consists of a Renilla luciferase (RlucII)-tagged AT1R and an acceptor renilla GFP (rGFP) anchored to endosomes through an Endofin-FYVE (Endo-rGFP) domain[12]. AngII-mediated trafficking of AT1R to endosomes was screened against commercial libraries of ~115,000 small molecules (Fig. 1a and Supplementary Data 1). Because our assay is based on luminescence and fluorescence, we excluded 6610 compounds that quenched more than 50% of the luciferase or GFP signals. After excluding 5 AT1R antagonists, we conserved hit compounds blocking by more than 40%, as well as those potentiating by more than 100% receptor internalization. From this collection of 943 compounds, a second validation on AT1R internalization was performed using the same BRET assay, as well as on the agonist-mediated B2R internalization, this time using B2R-RlucII and Endo-rGFP. Only compounds that were revalidated on AT1R and affected B2R endocytosis were kept, which included forty hits (20 potentiators and 20 inhibitors) (Fig. 1b and Supplementary Data 2). We focused on inhibitors that were commercially available at the beginning of the project and tested their cell toxicity by microscopy, looking at cells expressing B2R tagged with YFP, which highlights cell contours and potential morphological changes, such as rounding up of cells following treatment with 50 μM of the compounds that may have indicated cell death. None of the inhibitors tested caused abnormal cell morphological changes when cells were treated with compounds as compared to DMSO-treated cells. Inhibitors were also assessed in terms of structure novelty, derivatization potential, and commercial availability of analogs (within 95–98% similarity from Tanimoto metric, Sci-Finder, https://scifinder-n.cas.org), for structure-activity relationship studies (SAR). They were scored 1–5, from best to worst. We excluded compounds with potential nucleophilic reactivity (e.g., Michael addition: compounds 7, 26, and 27), those reported to have biological activities (compounds 8, 20, 25, 30, and 35) and/or showing autofluorescence (compound 26). Compound 19 ranked high, but only had one other molecule with a similar structure available. Although other molecules could be interesting in their own rights as endocytosis inhibitors (e.g., compounds 1, 9, 11, 12, 13, 24, 31, and 37), we focused on compound 21 (Fig. 1c) because not only did it rank high in our analysis, but it was also the only compound with substantially more similar analogs commercially available at the time of these investigations. In the screen and the follow-up validation assay, 21 inhibited more than 50% AT1R internalization and more than 65% B2R internalization (Supplementary Data 2). […] Because β-arrestins are critically involved in GPCR endocytosis and trafficking in cells, we assessed 21’s effects on β-arrestins’ recruitment to AT1R and B2R at the PM using a BRET assay, as well as their trafficking into endosomes by microscopy.
The chemical library used for initial screening was from Chembridge DiverSet™ (60,000 compounds), Maybridge HitFinder™ (16,000 compounds), Maybridge (selected, 16,000 compounds), SPECS (selected, 16000 compounds), Microsource Discovery Spectrum (2000 compounds), Biomol (natural products, 500 compounds), Prestwick (commercialized products, 1120 compounds), SIGMA LopacTM (1280 compounds) and internal collection (synthesized at Université de Montréal-IRIC, ~4000 compounds). Compounds were all assigned an Université de Montréal number (UM) for internal use. Screen was performed at IRIC HTS facility. KINOMEscan™ profiling was serviced by Eurofin/DiscoverX (San Diego, USA).
HEK293SL cells were seeded at a density of 7.5 × 10^5 cells per 100-mm dish and 24 h later, transiently transfected as such. […]
Background: Bioluminescence resonance energy transfer reports proximity on the nanometre scale.

For data set [1], the system named is ERK1/2 activation by AT1R. Put plainly: Western blot of AT1R-mediated ERK1/2 phosphorylation. The class given is cell-based, human. The conditions noted are these: for p-ERK1/2 over ERK1/2, normalized to basal (0 min), AT1R: Comp 21 50 μM; for p-ERK1/2 over ERK1/2, normalized to basal (0 min), AT1R / ERK 1/2 activation, AT1R (p-ERK1/2 over ERK1/2, fold over basal): individual experiments. How it is done:
HEK293SL cells (10^5 cells per well) were seeded in a poly-L-lysine-coated six-well plate and transiently transfected with 3 μg Flag-AT1R, HA-B2R or HA-β2AR and/or 500 ng Flag-MEK1-WT, Flag-MEK1-DD, Flag-BRAF-WT, Flag-BRAF-V600E, Flag-K-Ras-WT, Flag-K-Ras-G12V, HA-ARF6-WT, or HA-ARF6-T27N. Gαq/11 KO and βarr1/2 KO cells were seeded onto 100 mm dishes at a density of 10^6 cells per dish. Next day, cells were transfected with 3 μg AT1R alone or along with 500 ng of β-arrestin2 using PEI. After 18 h of transfection, cells were detached and re-seeded onto poly-L-lysine coated 12-well plates (~1.5–2 × 10^5cells/well) for subsequent experiments. Forty-eight hours post transfection, in a 37 °C water bath, cells were serum-starved for 30 min, pretreated with DMSO (0.1%) or compound 21/Rasarfin (50 µM or at indicated concentrations) for 30 min, then stimulated or not with the indicated ligand [AngII (1 µM), BK (1 µM), Iso (10 µM) or EGF (100 ng/ml)] at indicated times. Cells were put on ice, washed with PBS and solubilized in 2x laemmli buffer (250 mM Tris–HCl pH 6.8, 2% SDS (w/v), 10% glycerol (v/v), 0.01% bromophenol blue (w/v) and 5% β-mercaptoethanol (v/v)) by heating at 65 °C for 15 min. Lysates were resolved on 10 or 14% SDS-PAGE, transferred to nitrocellulose membranes and immunoblotted for p-ERK1/2, ERK1/2, p-Akt, Akt, HA, Myc, β-actin or FLAG. ImageLab 5.2 software was used to quantify the digital blots as fold of the phosphorylated protein over total protein, which were then normalized as indicated in the figure legends. Uncropped immunoblots are provided in the Source Data file.
In general terms: Immunoblotting shows a protein as a band on a membrane.

In another data set the test system is MDA-MB-231 cells. The data set is described as follows: Cell proliferation assay (IncuCyte confluence), MDA-MB-231. The class given is cell-based, human. How it is done: Cell proliferation was measured by a label-free, non-invasive cellular confluence assay using IncuCyte Live-Cell Imaging Systems (Essen Bioscience, Ann Arbor, MI, USA). MDA-MB-231 breast cancer and A549 lung carcinomas cells (1500 cells in 150 μl/well) were seeded overnight on a clear 96-well plate. Twenty-four hours later, the cells were treated with 0.1% DMSO, or different concentrations of Rasarfin (as indicated), or 10 µM of 21.4 or 21.8 for 96 h total. The plate was placed in an XL-3 incubation chamber maintained at 37 °C and the cells were photographed using a ×4 objective, every 3 h for 4 days. Cell confluence was calculated using IncuCyte S3 software (2019A) and cell proliferation was expressed as an increase in the percentage of confluence. Experiments were done in triplicate and repeated three times.

Data set [2] in a line: Maximal solubility concentration. The class given is physicochemical.

Each structure is given as a SMILES string. Converted amounts (≈) assume the structure as drawn. “And” between values parts separate entries of the source, which are not always exact repeats. Equal values may be shown once.

On to `CCCC(=O)N1CCN(c2ccc(NC(=O)c3cc4ccccc4o3)cc2Cl)CC1` [Compound 21.8], for which the “inhibition of AT1R internalization into endosomes (Fig. 8a)” value with AT1R (50 μM) was “loss of compounds’ efficacy to inhibit AT1R internalization”. Besides, the “inhibition of AT1R-mediated ERK1/2 (MAPK) activation (Fig. 8b)” value in data set [1] (50 μM) was “maintained its MAPK inhibitory property”. In addition, in the data set with MDA-MB-231 cells (10 µM), the “MDA-MB-231 cell proliferation (confluency)” value is given as “inhibited cell proliferation”.

On to `CC(C)C(=O)N1CCN(c2ccc(NC(=O)c3cc4ccccc4o3)cc2Cl)CC1` [Compound 21], for which, in the data set with AT1R (21 at 50 µM), the “block of AT1R internalization” value was “around 90%”. In addition, the “Mean Diff. DMSO vs. compound (Fig.8a, Dunnett's multiple comparisons test)” value with AT1R (DMSO = 100) is listed as 49.06. Moreover, the IC50 in the data set with AT1R (Homo sapiens, AngII, into endosomes, read-out: IC50 for inhibition of AT1R internalization) was 10 µM; in data set [1] (Homo sapiens, read-out: IC50 for inhibition of ERK1/2 activation by AT1R), 5 µM. Further, the “AT1R internalization into endosomes, ligand-promoted BRET (Mean)” value is reported as 13.6921 percent compared to DMSO in the data set with AT1R (Log [Comp21] (M) -4.3); 24.3306 percent compared to DMSO in the data set on AT1R (Log [Comp21] (M) -4.6); 74.1156 percent compared to DMSO with AT1R (Log [Comp21] (M) -5); 91.7102 percent compared to DMSO in the data set on AT1R (Log [Comp21] (M) -5.3); 95.8484 percent compared to DMSO in the data set on AT1R (Log [Comp 21] (M) -6); 92.6647 percent compared to DMSO in the data set on AT1R (Log [Comp21] (M) -6.3). Besides, the “AT1R internalization into endosomes, ligand-promoted BRET (Mean)” value in the data set with AT1R (Log [Comp 21] (M) -7) is given as 100.935 percent compared to DMSO. Moreover, the “AT1R Confirmation Inhibition (%DMSO)” value with AT1R (confirmation, two experiments, negative = potentiation) is 60.3475 %DMSO. Also, the “AT1R Primary Screen Inhibition (%DMSO)” value in the data set on AT1R (primary screen, negative = potentiation) was found to be 53.93 %DMSO. Also, in the data set on AT1R (screen and follow-up validation assay), the “inhibition of AT1R internalization” value is “more than 50%”. Also, the “AngII-mediated phosphorylation of ERK1/2” value in data set [1] (50 μM) is reported as “totally inhibited”. Also, the “p-ERK1/2 over ERK1/2, normalized to basal (0 min), AT1R” value in data set [1] (time 0 min) was 1; in data set [1] (time 2 min), 0.1554 and 0.4142 and 0.5216 and 8.819; in data set [1] (time 5 min), 0.1741 and 0.568 and 0.6273 and 10.8319. Further, the “Mean Diff. DMSO vs. compound of P-ERK/ERK (fold over Basal) (Dunnett's multiple comparisons test)” value in data set [1] (Fig.8b) turned out to be 6.88. For the same compound, the “ERK 1/2 activation, AT1R (p-ERK1/2 over ERK1/2, fold over basal)” value in data set [1] (Log [Comp 21] (M) -4.3) is 17.8621 percent compared to DMSO and 9.459 percent compared to DMSO and 11.994 percent compared to DMSO; in data set [1] (Log [Comp 21] (M) -5), 18.3493 percent compared to DMSO and 17.9264 percent compared to DMSO and 17.6879 percent compared to DMSO; in data set [1] (Log [Comp 21] (M) -5.3) it was 58.8009 percent compared to DMSO and 49.3558 percent compared to DMSO and 49.3771 percent compared to DMSO; in data set [1] (Log [Comp 21] (M) -6), 81.7633 percent compared to DMSO and 93.0329 percent compared to DMSO and 113.57 percent compared to DMSO; in data set [1] (Log [Comp 21] (M) -6.3), 97.88 percent compared to DMSO and 83.5696 percent compared to DMSO; in data set [1] (Log [Comp 21] (M) -7), 100 percent compared to DMSO. Also, the “MDA-MB-231 cell growth (confluency)” value in the data set on MDA-MB-231 cells (various concentrations of Rasarfin) is listed as “dose-dependent reduction in cell growth over time”. Besides, the solubility in data set [2] (DMSO, organic solvent or mixture, read-out: maximum solubility concentration in DMSO) is roughly 50 µM (≈ 21.3 µg/mL).

As to `Nn1cnc2scc(-c3ccc(Cc4ccccc4)cc3)c2c1=O` [Barbadin, reference compound], in data set [1] (Barbadin 100 µM), the “MAPK promoted by AT1R” value was “ineffective at blocking MAPK”. The maximal solubility concentration in data set [2] came out at 100 µM.
